Patent US8232295B2, “Treating vascular events with statins by inhibiting PAR-1 and PAR-4” (Heartdrug Research, L.L.C., priority 2004, dated 2012)

Key:
[1] = system: platelet PAR-1/PAR-4 receptors (intact epitope); assay: Whole blood flow cytometry with SPAN12 monoclonal antibody (nonactive, intact epitope) in statin-treated patients with coronary artery disease; assay type: in vivo, human; details: n = 10
Text: (§1) The study was designed as a prospective, single blinded, placebo controlled trial of 6 major statins currently available in the US. The study was approved by local institutional review boards. Written informed consent was obtained from all patients, who were informed of the strict compliance rules, and compensated for outpatient visits, and blood draws.
(§2) Blood samples were obtained with a 19-gauge needle by direct venipuncture and drawn into two 7-ml vacutainer tubes at room temperature containing 3.8% trisodium citrate. The vacutainer tube was filled to capacity and gently inverted 3 to 5 times to ensure complete mixing of the anticoagulant. The first 4-5 ml of blood were used for lipid profile analysis, or discharged. All samples were labeled with coded number and analyzed by blinded technicians. Platelet studies were performed at baseline as well as at Week 4, and Week 6.
(§3) The blood-citrate mixture (50 μl) was diluted with 450 μl Tris buffered saline (TBS) (10 mmol/l Tris, 0.15 mol/l sodium chloride) and mixed by inverting an Eppendorf tube gently two times. The appropriate antibody was then added (5 μl) and incubated at 37° C. for 30 minutes, after incubation, 400 μl of 2% buffered paraformaldehyde was added for fixation. The samples were analyzed on the FACScan flow cytometer (Becton Dickinson, San Diego, Calif.) calibrated to measure fluorescent light scatter. All parameters were collected using four-decade logarithmic amplification. The data were collected in list mode files and then analyzed. The surface expression of platelet receptors was determined by flow cytometry using the following monoclonal antibodies: cleaved (WEDE15), and intact (SPAN12) platelet thrombin PAR-1/PAR-4 receptors (Beckman Coulter, Brea, Calif.), and they were expressed as log mean fluorescence intensity.
(§4) The significance of differences between treatments arms was calculated by c2 and Fisher's exact tests for discrete variables, and Wilcoxon rank-sum test for continuous variables. The significance of differences between individual flow cytometric histograms was calculated using the Smirnov-Kolgomorov test incorporated in the CELLQuest' (San Diego, Calif.) software. Statistical analyses were performed using SPSS/E11.5 (SPSS, Inc., Chicago, Ill.). To control for any baseline differences analysis of variance was used. All p values are 2 sided.

[2] = system: platelet PAR-1/PAR-4 receptors (cleaved epitope); assay: Whole blood flow cytometry with WEDE15 monoclonal antibody (cleaved epitope) in statin-treated patients with coronary artery disease; assay type: in vivo, human; details: n = 10
Text: as §1, §2, §3, §4

[3] = Baseline (pretreatment), patients with coronary artery disease, mean ± SD
[4] = Week 4 of statin therapy, dose at physician discretion (Table 2), *p < 0.05
[5] = Week 6 of statin therapy, dose at physician discretion (Table 2), *p < 0.05

Row | SMILES | SPAN-12-MoAbs (nonactive, intact epitope of PAR-1/PAR-4 receptors) receptor expression [1, 3] | SPAN-12-MoAbs (nonactive, intact epitope of PAR-1/PAR-4 receptors) receptor expression [1, 4] | SPAN-12-MoAbs (nonactive, intact epitope of PAR-1/PAR-4 receptors) receptor expression [1, 5] | WEDE15-MoAbs (a cleaved epitope of PAR-1/PAR-4 receptors) receptor expression [2, 3] | WEDE15-MoAbs (a cleaved epitope of PAR-1/PAR-4 receptors) receptor expression [2, 4] | WEDE15-MoAbs (a cleaved epitope of PAR-1/PAR-4 receptors) receptor expression [2, 5]
1 | CC[C@H](C)C(=O)O[C@H]1C[C@H](O)C=C2C=C[C@H](C)[C@H](CC[C@@H](O)C[C@@H](O)CC(=O)O)[C@H]21 [Pravastatin, pravastatin] | 50.3 ± 9.1 Log mean fluorescence intensity | 29.0 ± 6.7* Log mean fluorescence intensity | 32.6 ± 8.4* Log mean fluorescence intensity | 28.2 ± 4.4 Log mean fluorescence intensity | 16.9 ± 4.8* Log mean fluorescence intensity | 20.1 ± 6.6* Log mean fluorescence intensity
2 | CC(C)c1c(C(=O)Nc2ccccc2)c(-c2ccccc2)c(-c2ccc(F)cc2)n1CC[C@@H](O)C[C@@H](O)CC(=O)O [Atorvastatin, atorvastatin] | 46.1 ± 8.3 Log mean fluorescence intensity | 39.5 ± 5.7 Log mean fluorescence intensity | 30.8 ± 4.0* Log mean fluorescence intensity | 27.5 ± 4.9 Log mean fluorescence intensity | 16.1 ± 5.8* Log mean fluorescence intensity | 18.0 ± 7.4* Log mean fluorescence intensity
3 | CC(C)n1c(/C=C/C(O)CC(O)CC(=O)O)c(-c2ccc(F)cc2)c2ccccc21 (stereo not drawn) [Fluvastatin, fluvastatin] | 42.8 ± 8.2 Log mean fluorescence intensity | 37.1 ± 7.3 Log mean fluorescence intensity | 29.9 ± 6.4* Log mean fluorescence intensity | 27.1 ± 5.9 Log mean fluorescence intensity | 18.0 ± 5.8* Log mean fluorescence intensity | 20.7 ± 4.1* Log mean fluorescence intensity
4 | CC(C)c1nc(N(C)S(C)(=O)=O)nc(-c2ccc(F)cc2)c1/C=C/[C@@H](O)C[C@@H](O)CC(=O)O [Rosuvastatin, rosuvastatin] | 42.2 ± 9.4 Log mean fluorescence intensity | 33.6 ± 5.9 Log mean fluorescence intensity | 25.1 ± 7.0* Log mean fluorescence intensity | 30.1 ± 7.2 Log mean fluorescence intensity | 17.4 ± 5.5* Log mean fluorescence intensity | 22.6 ± 7.2* Log mean fluorescence intensity
5 | CCC(C)(C)C(=O)O[C@H]1C[C@@H](C)C=C2C=C[C@H](C)[C@H](CC[C@@H]3C[C@@H](O)CC(=O)O3)[C@H]21 [Simvastatin, simvastatin] | 45.4 ± 7.0 Log mean fluorescence intensity | 26.5 ± 5.8* Log mean fluorescence intensity | 24.9 ± 6.2* Log mean fluorescence intensity | 29.0 ± 7.3 Log mean fluorescence intensity | 16.6 ± 5.5* Log mean fluorescence intensity | 23.4 ± 8.1 Log mean fluorescence intensity
6 | CC[C@H](C)C(=O)O[C@H]1C[C@@H](C)C=C2C=C[C@H](C)[C@H](CC[C@@H]3C[C@@H](O)CC(=O)O3)[C@H]21 [Lovastatin, lovastatin] | 40.6 ± 6.9 Log mean fluorescence intensity | 40.0 ± 8.1 Log mean fluorescence intensity | 31.1 ± 5.5* Log mean fluorescence intensity | 26.8 ± 4.9 Log mean fluorescence intensity | 18.4 ± 5.0* Log mean fluorescence intensity | 23.0 ± 6.3 Log mean fluorescence intensity
